# Test results reported in US10927075B2, “Compositions and methods relating to the treatment of cancer, autoimmune disease, and neurodegenerative disease” (THE JACKSON LABORATORY, priority 2014, dated 2021).
# Entries after “also recorded” stand apart in the source; their conditions may differ.
# Legend:
# [1] = molecular target: RAD51 (Mus musculus, UniProt Q08297); assay: RAD51 nucleocytoplasmic distribution by cell fractionation and Western blotting; assay type: cell-based; design: quantitation of RAD51 expression in nuclear and cytoplasmic fractions as determined by Western Blot; endogenous in cells
# Method: It was next tested whether C-1523 would affect RAD51 localization or DNA damage-induced focus formation. Primary mouse B-cells were treated with 100 nM C-1523 (or vehicle control) and given either 0 or 2.5Gy ionizing irradiation. Following recovery in cell culture, cells were fixed and stained for immunofluorescence imaging to measure subcellular localization of RAD51. […] To confirm the effect of C-1523 on RAD51 subcellular localization, nucleocytoplasmic distribution was independently measured following C-1523 treatment by cell fractionation and Western blotting (FIG. 13D; Supplemental FIG. 2). […] This effect on subcellular localization was specific to RAD51, as localization of NF-kB, which undergoes nuclear translocation and homing to genomic target sites after cell stimulation, was unaffected by C-1523 exposure (FIGS. 13E-13F).
# [2] = test system: primary WT mouse splenic B cells; assay: H2AX foci immunostaining in activated B-lymphocytes; assay type: cell-based; settings: 100 nM
# Method: FIG. 15A depicts an analysis of primary WT (AID+/+, closed markers) and AID−/− (open markers) murine B cell proliferation under activating conditions (αCD40 and IL-4 on days 0 and 2) and treated with the indicated doses of C-1523 for 4 days. Measurement of cell proliferation was determined by Trypan Blue staining and counting of viable, non-staining, cells via hemocytometer. Data are represented as the mean cell count for each condition. FIG. 15B depicts data from experiments in which primary B cells from A were stained with PI on day 4 and analyzed via flow cytometry for the percentage of cells that were non-viable, PI-positive (PI+). FIG. 15C depicts RT-PCR analysis of AID expression in cultured human cell lines. Water (H2O) and RNA from HEK293T cells were employed as negative controls for template and AID expression, respectively, and human activated B lymphocyte RNA (Stim B) was used as a positive control. GAPDH expression was included as a loading control. […] Viability was determined by Trypan Blue staining and counting via hemocytometer. […] FIG. 15F depicts quantitation of foci observed in AID−/− and WT cells represented in FIG. 15E. […]
# To determine whether the cytotoxic effect of C-1523 in AID-expressing cells was associated with DNA damage overload, the accumulation of unrepaired AID-initiated DSBs was measured by H2AX immunoostaining, in activated mouse B-lymphocytes (FIGS. 15E, 15F). […]
# [3] = test system: CH12-F3 cells; assay: Radiosensitivity (viability after ionizing irradiation); assay type: cell-based, mouse; settings: 50 nM, 100 nM, or 150 nM; 0 or 2.5Gy
# Method: FIG. 13A depicts a viability analysis of C-1523-treated CH12-F3 cells 24 h after 0 or 2.5 Gy IR. Data are normalized to the fraction of cells for each IR dose that received DMSO vehicle only; error bars represent the SEM for three independent experiments. FIG. 13B depicts detection of RAD51 by immunofluorescence in primary mouse B cells 24 h after 0 or 2.5 Gy IR and treatment with C-1523 (100 nM) or vehicle. RAD51 staining is in red, nuclear DNA (DAPI-stained) is in blue. Scale bar: 10 μM. FIG. 13C depicts the quantification of cells with nuclear RAD51 (RAD51+) from FIG. 13B. Error bars represent the SEM for three independent experiments. FIG. 13D depicts the quantitation of RAD51 expression in nuclear and cytoplasmic fractions as determined by Western Blot. Values represent the average of three independent experiments and error bars are the SEM. FIG. 13E depicts the immunofluorescent detection of NF-κB localization in primary murine B cells. […] FIG. 13F depicts the quantitation of nuclear NF-κB staining from FIG. 13E. […]
# C-1523 disrupts RAD51 nucleocytoplasmic distribution and damage induced relocalization. To assess the DNA repair inhibitory activity of C-1523, radiosensitivity was measured in the mouse leukemia cell line, CH12-F3, with or without C-1523. […] Cells were allowed to recover in culture in the presence of C-1523 (or vehicle control) and viable cells were quantified. […]
# [4] = test system: AID+/+ or AID−/− B-cells; assay: Cell cycle analysis by propidium iodide staining and flow cytometry; assay type: cell-based; settings: 100 nM, up to 96 hours
# Method: (§1) AID+/+ or AID−/− B-cells were cultured with 100 nM and cell cycle profiles were determined by propidium iodide staining and flow cyotmetry at intervals up to 96 hours. Non-activated (CD40) cells were used as a negative control; activated cells treated with the microtuble poison colcemid (ACT+colcemid) were used as a positive control.
# as §1, with “control. Nuclei fragmentation analysis of primary, AID expressing B-cells treated with 100 nM C-1523 was conducted (FIG. 22).” for “control.”
# [5] = test system: primary splenic B-cells from WT (AID-expressing) mice; assay: Expansion and viability of activated primary splenic B-cells
# [6] = test system: mES cells; assay: DR-GFP reporter assay (HR repair of endonuclease generated DSB); assay type: cell-based, mouse; settings: 100 nM, compared to DMSO
# RAD51, sequence (Q08297 whole entry): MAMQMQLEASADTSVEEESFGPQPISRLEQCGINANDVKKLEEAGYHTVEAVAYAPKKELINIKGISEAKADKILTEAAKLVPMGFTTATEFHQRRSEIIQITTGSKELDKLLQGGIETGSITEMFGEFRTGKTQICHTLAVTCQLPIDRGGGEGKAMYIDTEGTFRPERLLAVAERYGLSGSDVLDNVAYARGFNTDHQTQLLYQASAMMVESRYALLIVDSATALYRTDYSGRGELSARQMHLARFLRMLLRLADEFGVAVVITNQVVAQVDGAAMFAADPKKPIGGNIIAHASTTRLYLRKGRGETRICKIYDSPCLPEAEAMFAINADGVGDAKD
smiles,measurement,setting,value
"CC(=O)Nc1ccc(/C=C/c2ccc(NC(=S)NC(C)C)cc2S(=O)(=O)O)c(S(=O)(=O)O)c1 [C-1523, (E)-5-acetamido-2-(4-(3-isopropylthioureido)-2-sulfonatostyryl)benzenesulfonate]","fraction of RAD51 localized to the nucleus, following irradiation",[1],"small, but measurable reduction"
same,fraction of cells with supernumerary foci (3-10 per cell),[2],significant increase
same,H2AX foci,[2]; αCD40 and IL-4,accumulation of H2AX foci
same,sensitivity to ionizing irradiation,[3],sensitivity to ionizing irradiation at every concentration tested
same,effect on cell cycle,[4],minimal effect on cell cycle; also recorded: minimal differences
same,dependence of induced cell death,[5],both AID and Trp53 dependent
same,shape of dose response,[5]; 1 to 1000 nM,biphasic response
same,B-cell viability,"[5]; 50, 100, 150, 200, or 250 nM, 3 days, Trypan blue",dose-dependent reduction in B-cell viability; also recorded: dose dependent reduction in B-cell viability
same,cellular expansion,"[5]; 50-250 nM, four days, αCD40+IL-4 activation",selectively suppressed cellular expansion
same,PI+ cells (cell death),"[5]; day 4, flow cytometry",significant increase in PI+ cells
same,reduction of percentage of GFP-positive cells,[6],about 40%
